The subject of the experiment is T1, E. coli transhydrogenase (PntA (α) and PntB (β)).
T1 construct: full-length wild-type holoenzyme from E. coli membranes, DDM-solubilised, Ni-NTA (tag not described) and SEC; dimer of two identical protomers (alpha2beta2)
Put plainly: spectrophotometric reduction of APAD+ by NADPH, […] nm. Format: biochemical, Escherichia coli. To be noted: 100 uM APAD+, 100 uM NADPH, 25 mM HEPES pH 7.5, 50 mM KCl, asolectin, 0.1% DDM, 37 °C; reverse reaction.

Data on 1 molecule can be found in publication PMC9529548 (Computational and Structural Biotechnology Journal, 2022).

Each structure is given as a SMILES string.

T1 sequence (P0AB67 whole entry): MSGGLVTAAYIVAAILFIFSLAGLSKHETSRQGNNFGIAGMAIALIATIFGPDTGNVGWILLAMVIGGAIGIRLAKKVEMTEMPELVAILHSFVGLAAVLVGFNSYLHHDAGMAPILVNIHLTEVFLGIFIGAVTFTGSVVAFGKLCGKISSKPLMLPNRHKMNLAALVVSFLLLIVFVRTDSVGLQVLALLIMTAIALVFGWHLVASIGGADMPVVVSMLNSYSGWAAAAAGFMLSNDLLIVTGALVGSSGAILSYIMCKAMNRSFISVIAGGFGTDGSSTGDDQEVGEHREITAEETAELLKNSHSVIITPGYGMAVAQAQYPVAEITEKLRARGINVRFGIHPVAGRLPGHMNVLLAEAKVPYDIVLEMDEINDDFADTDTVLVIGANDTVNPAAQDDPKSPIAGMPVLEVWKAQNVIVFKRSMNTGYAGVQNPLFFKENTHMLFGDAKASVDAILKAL
T1 sequence (P07001 whole entry, further chain): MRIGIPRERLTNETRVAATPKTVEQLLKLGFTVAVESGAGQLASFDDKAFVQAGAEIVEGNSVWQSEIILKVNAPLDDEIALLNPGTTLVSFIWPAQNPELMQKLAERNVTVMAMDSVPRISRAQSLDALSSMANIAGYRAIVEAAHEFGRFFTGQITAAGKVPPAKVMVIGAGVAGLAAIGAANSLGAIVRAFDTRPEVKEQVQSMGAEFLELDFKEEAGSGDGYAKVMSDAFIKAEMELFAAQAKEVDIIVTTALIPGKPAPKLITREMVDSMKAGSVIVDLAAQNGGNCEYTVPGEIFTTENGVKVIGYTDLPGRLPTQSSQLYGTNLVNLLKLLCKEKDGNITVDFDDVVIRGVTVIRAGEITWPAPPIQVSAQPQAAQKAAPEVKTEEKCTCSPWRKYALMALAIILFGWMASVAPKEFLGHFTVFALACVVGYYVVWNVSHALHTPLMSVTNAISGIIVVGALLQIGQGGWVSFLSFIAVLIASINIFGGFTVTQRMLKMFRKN

For `CC(=O)c1ccc[n+]([C@@H]2O[C@H](COP(=O)(O)OP(=O)(O)OC[C@H]3O[C@@H](n4cnc5c(N)ncnc54)[C@H](O)[C@@H]3O)[C@@H](O)[C@H]2O)c1` [APAD^+], the “spectrophotometric reduction of APAD+ by NADPH, 375 nm” value is “reverse transhydrogenase activity of the protein in DDM was measured using the reduction of APAD^+”.
